Measured values as given in ChEMBL document CHEMBL1137408, “Acylguanidines as small-molecule beta-secretase inhibitors” (J Med Chem, 2006).

Assays:
Homo sapiens = species: Homo sapiens; assay: Selectivity for BACE1 over Cathepsin D
H4 [1] = assay: Decrease in beta CTF level in wild type H4 cells by RICA; assay type: functional, cell-based; conditions: Homo sapiens
Pepsin A = Pepsin A (Homo sapiens, UniProt P0DJD9); assay: Inhibition of pepsin by FRET based peptide cleavage assay
H4 [2] = assay: Decrease in beta amyloid protein level in wild type H4 cells by RICA; assay type: functional, cell-based; conditions: Homo sapiens
Beta-secretase 2 = target: T1, Beta-secretase 2 (Homo sapiens, UniProt Q9Y5Z0); assay: Inhibition of BACE2 by FRET based peptide cleavage assay
T1 sequence (Q9Y5Z0 whole entry): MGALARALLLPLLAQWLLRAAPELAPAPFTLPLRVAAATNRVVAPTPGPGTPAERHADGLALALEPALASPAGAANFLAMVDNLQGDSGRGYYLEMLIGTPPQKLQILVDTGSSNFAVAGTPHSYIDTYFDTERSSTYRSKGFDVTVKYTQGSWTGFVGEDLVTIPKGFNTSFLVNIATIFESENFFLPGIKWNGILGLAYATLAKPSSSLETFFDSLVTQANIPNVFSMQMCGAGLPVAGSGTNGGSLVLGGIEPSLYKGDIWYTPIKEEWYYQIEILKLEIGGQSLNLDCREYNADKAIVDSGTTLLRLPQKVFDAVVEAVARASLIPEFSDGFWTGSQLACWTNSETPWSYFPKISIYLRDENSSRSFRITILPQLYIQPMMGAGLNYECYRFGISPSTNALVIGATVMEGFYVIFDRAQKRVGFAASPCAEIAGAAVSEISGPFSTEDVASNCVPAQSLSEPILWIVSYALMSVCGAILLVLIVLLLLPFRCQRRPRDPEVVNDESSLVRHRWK

Cathepsin D = Cathepsin D (Homo sapiens, UniProt P07339); assay: Inhibition of cathepsin D by FRET based peptide cleavage assay
Chain of Cathepsin D (P07339 65-162 limits assumed): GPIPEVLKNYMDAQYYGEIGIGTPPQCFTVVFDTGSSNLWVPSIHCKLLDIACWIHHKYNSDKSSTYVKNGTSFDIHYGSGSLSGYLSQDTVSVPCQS
Chain of Cathepsin D (P07339 169-412 limits assumed): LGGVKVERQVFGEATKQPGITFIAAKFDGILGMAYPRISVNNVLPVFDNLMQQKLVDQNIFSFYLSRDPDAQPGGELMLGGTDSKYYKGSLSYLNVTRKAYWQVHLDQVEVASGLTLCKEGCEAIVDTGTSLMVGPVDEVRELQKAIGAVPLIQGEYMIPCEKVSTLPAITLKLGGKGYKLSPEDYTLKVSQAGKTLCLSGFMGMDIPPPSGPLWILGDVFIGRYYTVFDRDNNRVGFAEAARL

Beta-secretase 1 = Beta-secretase 1 (Homo sapiens, UniProt P56817); assay: Inhibition of human recombinant BACE1 by FRET based peptide cleavage assay
Chain of Beta-secretase 1 (P56817 whole entry): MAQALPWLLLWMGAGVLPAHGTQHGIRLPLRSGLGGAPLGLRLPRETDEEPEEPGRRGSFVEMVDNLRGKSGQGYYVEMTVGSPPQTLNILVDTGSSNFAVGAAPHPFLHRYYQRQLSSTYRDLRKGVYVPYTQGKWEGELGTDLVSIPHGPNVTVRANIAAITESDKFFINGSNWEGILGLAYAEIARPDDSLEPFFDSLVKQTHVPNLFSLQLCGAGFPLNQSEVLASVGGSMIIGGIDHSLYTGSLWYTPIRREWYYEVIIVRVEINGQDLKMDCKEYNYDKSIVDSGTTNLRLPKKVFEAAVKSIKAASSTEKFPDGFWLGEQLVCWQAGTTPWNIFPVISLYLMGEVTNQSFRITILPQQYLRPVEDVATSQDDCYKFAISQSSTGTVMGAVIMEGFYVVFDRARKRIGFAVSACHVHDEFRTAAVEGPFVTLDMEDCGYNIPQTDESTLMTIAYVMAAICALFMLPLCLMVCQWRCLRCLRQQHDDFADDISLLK

CHO = assay: Decrease in beta amyloid protein level in CHO cells expressing human APP by ELISA; assay type: functional; conditions: Cricetulus griseus, read-out: ED50 (the source's name)

Chain of Pepsin A (P0DJD9 whole entry): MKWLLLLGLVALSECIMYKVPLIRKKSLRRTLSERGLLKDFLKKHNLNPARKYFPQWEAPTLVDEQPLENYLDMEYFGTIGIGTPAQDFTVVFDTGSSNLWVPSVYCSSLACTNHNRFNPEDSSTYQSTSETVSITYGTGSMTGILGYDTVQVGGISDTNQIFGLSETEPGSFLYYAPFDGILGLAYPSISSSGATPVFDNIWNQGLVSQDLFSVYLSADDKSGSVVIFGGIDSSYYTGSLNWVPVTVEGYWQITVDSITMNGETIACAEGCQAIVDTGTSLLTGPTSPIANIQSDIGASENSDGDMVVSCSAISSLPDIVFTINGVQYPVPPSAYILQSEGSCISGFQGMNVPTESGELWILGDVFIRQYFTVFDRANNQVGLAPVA

Selectivity ratio (Homo sapiens)	IC50 (Pepsin A) [µM]	IC50 (Beta-secretase 2) [µM]	IC50 (Cathepsin D) [µM]	IC50 (Beta-secretase 1) [µM]	Structure (SMILES)	Activity (H4 [1])	Activity (H4 [2])	EC50 (CHO) [µM]
	> 50				N=C(N)NC(=O)Cn1c(-c2ccccc2)ccc1-c1ccccc1	Dose-dependent effect	Dose-dependent effect	
> 50	> 50	3.5	19.4	0.24	N/C(=N/C(=O)Cn1c(-c2ccccc2)ccc1C12CC3CC(CC(C3)C1)C2)NCCCO			1.8
	> 50				CC(=O)c1ccc(Oc2ccc(-c3ccc(-c4ccccc4Cl)n3CC(=O)NC(=N)N)cc2)cc1			8.6

Further lines, the compound ahead of its results:

Structure (SMILES)	Selectivity ratio (Homo sapiens)	IC50 (Pepsin A) [µM]	IC50 (Beta-secretase 2) [µM]	IC50 (Cathepsin D) [µM]	IC50 (Beta-secretase 1) [µM]	Activity (H4 [1])	Activity (H4 [2])	EC50 (CHO) [µM]
CCCOc1ccc(-c2ccc(-c3ccccc3Cl)n2CC(=O)/N=C(/N)NCCCO)cc1	> 50							
NC(N)=NC(=O)Cn1c(-c2ccccc2)ccc1C12CC3CC(CC(C3)C1)C2	> 50	> 50	12.9	30.2	0.6			3.1
CCCOc1ccc(-c2ccc(-c3ccccc3Cl)n2CC(=O)NC(=N)NCCCO)cc1		> 50	0.34	5.9	0.11			
